Test results reported in patent publication US12077503B2, “Substituted cyclic amides and their use as herbicides” (FMC CORPORATION, priority 2015, dated 2024).

Legend:
Type in all cases: in vivo
[1] = tested on: Kochia (Kochia scoparia); experiment: Test A preemergence; settings: Preemergence; for Plant response rating, Kochia: 125 g ai/ha, visual injury after approximately 10 d, 0 to 100 scale where 0 is no effect and 100 is complete control; for Kochia plant response rating (0 to 100 scale, 0 is no effect, 100 is complete control): 500 g ai/ha, visual injury approx. 10 d
Text: (§1) Seeds of plant species selected from barnyardgrass (Echinochloa crus-galli), Kochia (Kochia scoparia), ragweed (common ragweed, Ambrosia elatior), ryegrass, Italian (Italian ryegrass, Lolium multiflorum), crabgrass, large (Digitaria sanguinalis), giant foxtail (Setaria faberii), green foxtail (Setaria viridis), morningglory (Ipomoea spp.), pigweed (Amaranthus retroflexus), velvetleaf (Abutilon theophrasti), wheat (Triticum aestivum), and corn (Zea mays) were planted into a blend of loam soil and sand and treated preemergence with a directed soil spray using test chemicals formulated in anon-phytotoxic solvent mixture which included a surfactant.
(§2) At the same time, plants selected from these crop and weed species and also blackgrass (Alopecurus myosuroides), and Galium (catchweed bedstraw, Galium aparine) were planted in pots containing the same blend of loam soil and sand and treated with postemergence applications of test chemicals formulated in the same manner. Plants ranged in height from 2 to 10 cm and were in the one- to two-leaf stage for the postemergence treatment. Treated plants and untreated controls were maintained in a greenhouse for approximately 10 d, after which time all treated plants were compared to untreated controls and visually evaluated for injury. Plant response ratings, summarized in Table A, are based on a 0 to 100 scale where 0 is no effect and 100 is complete control. A dash (-) response means no test result.

[2] = tested on: barnyardgrass (Echinochloa crus-galli); experiment: Test A preemergence; settings: Preemergence; for Plant response rating, Barnyardgrass: 125 g ai/ha, visual injury after approximately 10 d, 0 to 100 scale where 0 is no effect and 100 is complete control; for Barnyardgrass plant response rating (0 to 100 scale, 0 is no effect, 100 is complete control): 500 g ai/ha, visual injury approx. 10 d
Text: as §1, §2

[3] = tested on: giant foxtail (Setaria faberii); experiment: Test A preemergence; settings: Preemergence; for Plant response rating, Foxtail, Giant: 125 g ai/ha, visual injury after approximately 10 d, 0 to 100 scale where 0 is no effect and 100 is complete control; for Foxtail, Giant plant response rating (0 to 100 scale, 0 is no effect, 100 is complete control): 500 g ai/ha, visual injury approx. 10 d
Text: as §1, §2

[4] = tested on: pigweed (Amaranthus retroflexus); experiment: Test A preemergence; settings: Preemergence; for Plant response rating, Pigweed: 125 g ai/ha, visual injury after approximately 10 d, 0 to 100 scale where 0 is no effect and 100 is complete control; for Pigweed plant response rating (0 to 100 scale, 0 is no effect, 100 is complete control): 500 g ai/ha, visual injury approx. 10 d
Text: as §1, §2

[5] = tested on: ragweed (common ragweed, Ambrosia elatior); experiment: Test A preemergence; settings: Preemergence; for Plant response rating, Ragweed: 125 g ai/ha, visual injury after approximately 10 d, 0 to 100 scale where 0 is no effect and 100 is complete control; for Ragweed plant response rating (0 to 100 scale, 0 is no effect, 100 is complete control): 500 g ai/ha, visual injury approx. 10 d
Text: as §1, §2

[6] = tested on: ryegrass, Italian (Italian ryegrass, Lolium multiflorum); experiment: Test A preemergence; settings: Preemergence; for Plant response rating, Ryegrass, Italian: 125 g ai/ha, visual injury after approximately 10 d, 0 to 100 scale where 0 is no effect and 100 is complete control; for Ryegrass, Italian plant response rating (0 to 100 scale, 0 is no effect, 100 is complete control): 500 g ai/ha, visual injury approx. 10 d
Text: as §1, §2

[7] = tested on: Galium (catchweed bedstraw, Galium aparine); experiment: Test A postemergence
Text: as §1, §2

[8] = tested on: Kochia (Kochia scoparia); experiment: Test A postemergence
Text: as §1, §2

[9] = tested on: barnyardgrass (Echinochloa crus-galli); experiment: Test A postemergence
Text: as §1, §2

[10] = tested on: blackgrass (Alopecurus myosuroides); experiment: Test A postemergence
Text: as §1, §2

[11] = tested on: corn (Zea mays); experiment: Test A postemergence
Text: as §1, §2

[12] = tested on: giant foxtail (Setaria faberii); experiment: Test A postemergence
Text: as §1, §2

[13] = tested on: pigweed (Amaranthus retroflexus); experiment: Test A postemergence
Text: as §1, §2

[14] = tested on: ragweed (common ragweed, Ambrosia elatior); experiment: Test A postemergence
Text: as §1, §2

[15] = tested on: ryegrass, Italian (Italian ryegrass, Lolium multiflorum); experiment: Test A postemergence
Text: as §1, §2

[16] = tested on: wheat (Triticum aestivum); experiment: Test A postemergence
Text: as §1, §2

[17] = 1000 g ai/ha, 0 is no effect, 100 is complete control
[18] = 1000 g ai/ha, postemergence, 0 to 100 scale, 0 no effect, 100 complete control
[19] = 125 g ai/ha, postemergence, visual rating after approx. 10 d, 0 to 100 scale (0 no effect, 100 complete control)
[20] = Postemergence, 500 g ai/ha, 0 to 100 scale where 0 is no effect and 100 is complete control

Structure (SMILES)	Plant response rating, Kochia [1]	Kochia plant response rating (0 to 100 scale, 0 is no effect, 100 is complete control) [1]	Plant response rating, Barnyardgrass [2]	Barnyardgrass plant response rating (0 to 100 scale, 0 is no effect, 100 is complete control) [2]	Plant response rating, Foxtail, Giant [3]	Foxtail, Giant plant response rating (0 to 100 scale, 0 is no effect, 100 is complete control) [3]	Plant response rating, Pigweed [4]	Pigweed plant response rating (0 to 100 scale, 0 is no effect, 100 is complete control) [4]	Plant response rating, Ragweed [5]	Ragweed plant response rating (0 to 100 scale, 0 is no effect, 100 is complete control) [5]	Plant response rating, Ryegrass, Italian [6]	Ryegrass, Italian plant response rating (0 to 100 scale, 0 is no effect, 100 is complete control) [6]	Plant response rating, Galium [7, 19]	Plant response rating, Galium [7, 20]	Plant response rating, Kochia [8, 19]	Plant response rating, Kochia [8, 20]	Plant response rating, Barnyardgrass [9, 19]	Plant response rating, Barnyardgrass [9, 20]	Plant response rating, Blackgrass [10, 19]	Plant response rating, Blackgrass [10, 20]	other results
O=C(Nc1cccc(F)c1F)C1C(=O)N(CC=Cc2ccccc2)CC1c1cc(F)cc(F)c1 (centres unmarked) [Compound 511]																					Kochia plant response rating (0 to 100 scale) [1, 17]: 0; Barnyardgrass plant response rating (0 to 100 scale) [2, 17]: 90; Foxtail, Giant plant response rating (0 to 100 scale) [3, 17]: 90; Pigweed plant response rating (0 to 100 scale) [4, 17]: 0; Ragweed plant response rating (0 to 100 scale) [5, 17]: 0; Ryegrass, Italian plant response rating (0 to 100 scale) [6, 17]: 0; Plant response rating, Galium [7, 18]: 0; Plant response rating, Kochia [8, 18]: 0; Plant response rating, Barnyardgrass [9, 18]: 90; Plant response rating, Blackgrass [10, 18]: 20; Plant response rating, Corn [11, 18]: 0; Plant response rating, Foxtail, Giant [12, 18]: 90; Plant response rating, Pigweed [13, 18]: 0; Plant response rating, Ragweed [14, 18]: 0; Plant response rating, Ryegrass, Italian [15, 18]: 0; Plant response rating, Wheat [16, 18]: 0
CCc1cccc(C2CN(C)C(=O)C2C(=O)Nc2ccc(F)cc2F)c1 (centres unmarked) [Compound 570]	60	80	100	100	100	100	40	70	0	0	60	90	50	60	50	70	100	100	60	80	Plant response rating, Corn [11, 19]: 60; Plant response rating, Corn [11, 20]: 80; Plant response rating, Foxtail, Giant [12, 19]: 90; Plant response rating, Foxtail, Giant [12, 20]: 90; Plant response rating, Pigweed [13, 19]: 20; Plant response rating, Pigweed [13, 20]: 20; Plant response rating, Ragweed [14, 19]: 0; Plant response rating, Ragweed [14, 20]: 0; Plant response rating, Ryegrass, Italian [15, 19]: 50; Plant response rating, Ryegrass, Italian [15, 20]: 80; Plant response rating, Wheat [16, 19]: 30; Plant response rating, Wheat [16, 20]: 60
CN1CC(c2cccc(C(F)(F)F)c2)C(C(=O)Nc2ccccc2[N+](=O)[O-])C1=O (centres unmarked) [Compound 572]	70	80	90	90	90	90	40	80	0	50	50	50	50	60	20	60	90	90	70	80	Plant response rating, Corn [11, 19]: 60; Plant response rating, Corn [11, 20]: 80; Plant response rating, Foxtail, Giant [12, 19]: 90; Plant response rating, Foxtail, Giant [12, 20]: 90; Plant response rating, Pigweed [13, 19]: 30; Plant response rating, Pigweed [13, 20]: 40; Plant response rating, Ragweed [14, 19]: 0; Plant response rating, Ragweed [14, 20]: 20; Plant response rating, Ryegrass, Italian [15, 19]: 30; Plant response rating, Ryegrass, Italian [15, 20]: 60; Plant response rating, Wheat [16, 19]: 60; Plant response rating, Wheat [16, 20]: 70
